Laboratory results reported in patent publication US20130053410A1, “SUBSTITUTED HETEROARYL 2',3',7',7A'-TETRAHYDROSPIRO[PYRROLE-3,6'-PYRROLO[1,2-C]IMIDAZOLE]-1',2(1H,5'H)-DIONE” (priority 2011, published 2013).

These compounds were tested against interaction between p53 and MDM2 proteins (recombinant GST-tagged MDM2, biotinylated p53 peptide) (Homo sapiens, UniProt Q00987) (assay: HTRF assay of inhibition of the p53-MDM2 interaction). Conditions: bsa: 0.02%.
Assay type: binding
Procedure: The ability of the compounds to inhibit the interaction between p53 and MDM2 proteins was measured by an HTRF (homogeneous time-resolved fluorescence) assay in which recombinant GST-tagged MDM2 binds to a peptide that resembles the MDM2-interacting region of p53. Binding of GST-MDM2 protein and p53-peptide (biotinylated on its N-terminal end) is registered by the FRET (fluorescence resonance energy transfer) between Europium (Eu)-labeled anti-GST antibody and streptavidin-conjugated Allophycocyanin (APC).
[…] Add 10 uL diluted compounds (1:5 dilution in reaction buffer) to each well, mix by shaking. Add 20 uL biotinylated p53 peptide (180 nM working solution) in reaction buffer to each well and mix on shaker. Incubate at 37° C. for 1 h. Add 20 uL streptavidin-APC and Eu-anti-GST antibody mixture (6 nM Eu-anti-GST and 60 nM streptavidin-APC working solution) in TBS buffer with 0.2% BSA, shake at room temperature for 30 minutes and read using a TRF-capable plate reader at 665 and 615 nm (Victor 5, Perkin ElmerWallac). If not specified, the reagents were purchased from Sigma Chemical Co.

Sequence of interaction between p53 and MDM2 proteins (recombinant GST-tagged MDM2, biotinylated p53 peptide) (Q00987 whole entry): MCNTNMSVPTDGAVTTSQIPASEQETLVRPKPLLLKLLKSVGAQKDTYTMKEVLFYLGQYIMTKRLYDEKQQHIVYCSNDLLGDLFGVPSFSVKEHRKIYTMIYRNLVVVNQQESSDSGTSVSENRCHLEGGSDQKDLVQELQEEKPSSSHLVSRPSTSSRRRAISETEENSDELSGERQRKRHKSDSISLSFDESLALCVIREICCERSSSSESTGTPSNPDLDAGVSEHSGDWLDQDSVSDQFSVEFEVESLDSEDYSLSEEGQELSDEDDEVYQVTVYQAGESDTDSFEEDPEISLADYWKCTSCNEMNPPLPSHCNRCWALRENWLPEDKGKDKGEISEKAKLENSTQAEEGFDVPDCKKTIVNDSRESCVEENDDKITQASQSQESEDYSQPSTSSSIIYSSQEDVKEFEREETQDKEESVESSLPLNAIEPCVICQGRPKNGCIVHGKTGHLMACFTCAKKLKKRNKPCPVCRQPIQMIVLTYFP

| Structure (SMILES) | IC50 [nM] |
| --- | --- |
| COc1cc(C(=O)O)ccc1N1CN2[C@@H](CC(C)(C)C)[C@@]3(C(=O)Nc4cc(C)ncc43)[C@@H](c3cccc(Cl)c3F)[C@@H]2C1=O (racemic) [Example 2, rac-4-((3′R,5S,7S,7aR)-7-(3-chloro-2-fluorophenyl)-6′-methyl-5-neopentyl-1,2′-dioxo-1′,2′,7,7a-tetrahydrospiro[pyrrolo[1,2-c]imidazole-6,3′-pyrrolo[3,2-c]pyridine]-2(1H,3H,5H)-yl)-3-methoxybenzoic acid] | 102 |
| COc1cc(C(N)=O)ccc1N1CN2[C@@H](CC(C)(C)C)[C@@]3(C(=O)Nc4cc(C)ncc43)[C@@H](c3cccc(Cl)c3F)[C@@H]2C1=O (racemic) [Example 3a, rac-4-((3′R,5S,7S,7aR)-7-(3-chloro-2-fluorophenyl)-6′-methyl-5-neopentyl-1,2′-dioxo-1′,2′,7,7a-tetrahydrospiro[pyrrolo[1,2-c]imidazole-6,3′-pyrrolo[3,2-c]pyridine]-2(1H,3H,5H)-yl)-3-methoxybenzamide] | 89.9 |
| COc1cc(C(N)=O)ccc1N1CN2[C@@H](CC(C)(C)C)[C@]3(C(=O)Nc4cc(C)ncc43)[C@@H](c3cccc(Cl)c3F)[C@@H]2C1=O (racemic) [Example 3b, rac-4-((3′S,5S,7S,7aR)-7-(3-chloro-2-fluorophenyl)-6′-methyl-5-neopentyl-1,2′-dioxo-1′,2′,7,7a-tetrahydrospiro[pyrrolo[1,2-c]imidazole-6,3′-pyrrolo[3,2-c]pyridine]-2(1H,3H,5H)-yl)-3-methoxybenzamide] | 1160 |
| COc1cc(C(=O)O)ccc1N1CN2[C@@H](CC(C)(C)C)[C@@]3(C(=O)Nc4ccncc43)[C@@H](c3cccc(Cl)c3F)[C@@H]2C1=O (racemic) [Example 5, rac-4-((3′R,5S,7S,7aR)-7-(3-chloro-2-fluorophenyl)-5-neopentyl-1,2′-dioxo-1′,2′,7,7a-tetrahydrospiro[pyrrolo[1,2-c]imidazole-6,3′-pyrrolo[3,2-c]pyridine]-2(1H,3H,5H)-yl)-3-methoxybenzoic acid] | 797 |
| COc1cc2c(cn1)[C@@]1(C(=O)N2)[C@H](CC(C)(C)C)N2CN(c3ccc(C(=O)O)cc3OC)C(=O)[C@H]2[C@@H]1c1cccc(Cl)c1F (racemic) [Example 6, rac-4-((3′R,5S,7S,7aR)-7-(3-chloro-2-fluorophenyl)-6′-methoxy-5-neopentyl-1,2′-dioxo-1′,2′,7,7a-tetrahydrospiro[pyrrolo[1,2-c]imidazole-6,3′-pyrrolo[3,2-c]pyridine]-2(1H,3H,5H)-yl)-3-methoxybenzoic acid] | 23 |
| COc1cc2c(cn1)[C@@]1(C(=O)N2)[C@H](CC(C)(C)C)N2CN(c3ccc(C(N)=O)cc3OC)C(=O)[C@H]2[C@@H]1c1cccc(Cl)c1F (racemic) [Example 7, rac-4-((3′R,5S,7S,7aR)-7-(3-chloro-2-fluorophenyl)-6′-methoxy-5-neopentyl-1,2′-dioxo-1′,2′,7,7a-tetrahydrospiro[pyrrolo[1,2-c]imidazole-6,3′-pyrrolo[3,2-c]pyridine]-2(1H,3H,5H)-yl)-3-methoxybenzamide] | 15 |
| COc1cc(C(=O)O)ccc1N1CN2[C@@H](CC(C)(C)C)[C@@]3(C(=O)Nc4nc(Cl)ccc43)[C@@H](c3cccc(Cl)c3F)[C@@H]2C1=O (racemic) [Example 9, rac-4-((3′R,5S,7S,7aR)-6′-chloro-7-(3-chloro-2-fluorophenyl)-5-neopentyl-1,2′-dioxo-1′,2′,7,7a-tetrahydrospiro[pyrrolo[1,2-c]imidazole-6,3′-pyrrolo[2,3-b]pyridine]-2(1H,3H,5H)-yl)-3-methoxybenzoic acid] | 15 |
| COc1cc(C(N)=O)ccc1N1CN2[C@@H](CC(C)(C)C)[C@@]3(C(=O)Nc4nc(Cl)ccc43)[C@@H](c3cccc(Cl)c3F)[C@@H]2C1=O (racemic) [Example 10, rac-4-((3′R,5S,7S,7aR)-6′-chloro-7-(3-chloro-2-fluorophenyl)-5-neopentyl-1,2′-dioxo-1′,2′,7,7a-tetrahydrospiro[pyrrolo[1,2-c]imidazole-6,3′-pyrrolo[2,3-b]pyridine]-2(1H,3H,5H)-yl)-3-methoxybenzamide] | 19.3 |
| COc1cc(C(=O)O)ccc1N1CN2[C@@H](CC(C)(C)C)[C@@]3(C(=O)Nc4ncccc43)[C@@H](c3cccc(Cl)c3F)[C@@H]2C1=O (racemic) [Example 15, rac-4-((3′R,5S,7S,7aR)-7-(3-chloro-2-fluorophenyl)-5-neopentyl-1,2′-dioxo-1′,2′,7,7a-tetrahydrospiro[pyrrolo[1,2-c]imidazole-6,3′-pyrrolo[2,3-b]pyridine]-2(1H,3H,5H)-yl)-3-methoxybenzoic acid] | 96 |
| COc1cc(C(=O)O)ccc1N1CN2[C@@H](CC(C)(C)C)[C@@]3(C(=O)Nc4cc(C)cnc43)[C@@H](c3cccc(Cl)c3F)[C@@H]2C1=O (racemic) [Example 16, rac-4-((3′S,5S,7S,7aR)-7-(3-chloro-2-fluorophenyl)-6′-methyl-5-neopentyl-1,2′-dioxo-1′,2′,7,7a-tetrahydrospiro[pyrrolo[1,2-c]imidazole-6,3′-pyrrolo[3,2-b]pyridine]-2(1H,3H,5H)-yl)-3-methoxybenzoic acid] | 21.8 |

These reach a lower IC50. Values come first.

| IC50 [nM] | Structure (SMILES) |
| --- | --- |
| 9.6 | COc1cc(C(N)=O)ccc1N1C(=O)[C@H]2[C@H](c3cccc(Cl)c3F)[C@]3(C(=O)Nc4cc(Cl)ncc43)[C@H](CC(C)(C)C)N2[C@@H]1CO [Example 13, 4-((3S,3′R,5S,7S,7aR)-6′-chloro-7-(3-chloro-2-fluorophenyl)-3-(hydroxymethyl)-5-neopentyl-1,2′-dioxo-1′,2′,7,7a-tetrahydrospiro[pyrrolo[1,2-c]imidazole-6,3′-pyrrolo[3,2-c]pyridine]-2(1H,3H,5H)-yl)-3-methoxybenzamide] |
| 7.5 | COc1cc(C(N)=O)ccc1N1C(=O)[C@H]2[C@H](c3cccc(Cl)c3F)[C@]3(C(=O)Nc4cc(Cl)ncc43)[C@H](CC(C)(C)C)N2[C@@H]1C [Example 11, 4-((3S,3′R,5S,7S,7aR)-6′-chloro-7-(3-chloro-2-fluorophenyl)-3-methyl-5-neopentyl-1,2′-dioxo-1′,2′,7,7a-tetrahydrospiro[pyrrolo[1,2-c]imidazole-6,3′-pyrrolo[3,2-c]pyridine]-2(1H,3H,5H)-yl)-3-methoxybenzamide] |
| 7.5 | COc1cc(C(N)=O)ccc1N1C(=O)[C@H]2[C@H](c3cccc(Cl)c3F)[C@]3(C(=O)Nc4cc(Cl)ncc43)[C@H](CC(C)(C)C)N2[C@@H]1CCC1CCOCC1 [Example 14, 4-((3S,3′R,5S,7S,7aR)-6′-chloro-7-(3-chloro-2-fluorophenyl)-5-neopentyl-1,2′-dioxo-3-(2-(tetrahydro-2H-pyran-4-yl)ethyl)-1′,2′,7,7a-tetrahydrospiro[pyrrolo[1,2-c]imidazole-6,3′-pyrrolo[3,2-c]pyridine]-2(1H,3H,5H)-yl)-3-methoxybenzamide] |
| 7 | CC[C@@H]1N(c2ccc(C(N)=O)cc2OC)C(=O)[C@H]2[C@H](c3cccc(Cl)c3F)[C@]3(C(=O)Nc4cc(Cl)ncc43)[C@H](CC(C)(C)C)N12 [Example 12, 4-((3S,3′R,5S,7S,7aR)-6′-chloro-7-(3-chloro-2-fluorophenyl)-3-ethyl-5-neopentyl-1,2′-dioxo-1′,2′,7,7a-tetrahydrospiro[pyrrolo[1,2-c]imidazole-6,3′-pyrrolo[3,2-c]pyridine]-2(1H,3H,5H)-yl)-3-methoxybenzamide] |
| 6.8 | COc1cc(C(N)=O)ccc1N1CN2[C@@H](CC(C)(C)C)[C@@]3(C(=O)Nc4cc(Cl)ncc43)[C@@H](c3cccc(Cl)c3F)[C@@H]2C1=O [Example 1, 4-((3′R,5S,7S,7aR)-6′-chloro-7-(3-chloro-2-fluorophenyl)-5-neopentyl-1,2′-dioxo-1′,2′,7,7a-tetrahydrospiro[pyrrolo[1,2-c]imidazole-6,3′-pyrrolo[3,2-c]pyridine]-2(1H,3H,5H)-yl)-3-methoxybenzamide] |
